Laboratory results taken from PMC12863195 (2026).

How the values were obtained:
[1] = test system: Na/Ta/Pa (DNA, aptamer) ACCTGGGGGAGTATTAATACGACTCACTATAGGGTTCTCCTCTGCGTTGTTGTTTG/CAAACAACAACGCAGAGGAGAACCCTATAGTGAGTCG/TATTATGCGGAGGAAGGT; assay: transcription activation, F/Q strand displacement fluorescence; conditions: Mg2+ 20 mM (MgCl2); 1×RNAPol reaction buffer, 0.2 µM strands, 0.125-2 mM Ade, 33 °C
[2] = test system: Split Ade aptamer – 3nt (Ga/Ha; d1/c/t1+d2/c'/t2) (DNA, aptamer) AGGGTGGTGGCGAACTGCGGAGGAAGGT/ACCTGGGGGAGTATGATCGCCTAGGTTGGGT; assay: ITC; conditions: Mg2+ 40 mM (MgCl2); 40 mM Tris acetate pH 7.9, 25 °C; one set of sites fit
[3] = test system: Split Ade aptamer – 0nt (d1/t1+d2/t2) (DNA, aptamer) AGGGTGGTGGCGTGCGGAGGAAGGT/ACCTGGGGGAGTATCGCCTAGGTTGGGT; assay: ITC; conditions: Mg2+ 40 mM (MgCl2); 40 mM Tris acetate pH 7.9, 25 °C; one set of sites fit
[4] = test system: Split Ade aptamer – 3nt (Ga/Ha; d1/c/t1+d2/c'/t2) (DNA, aptamer) AGGGTGGTGGCGAACTGCGGAGGAAGGT/ACCTGGGGGAGTATGATCGCCTAGGTTGGGT; assay: stated; ADA-driven loss of thrombin inhibition; conditions: adenosine 1.25-1.8 mM converted by ADA
[5] = test system: Split Mel aptamer – 0nt (DNA, aptamer) GCACACCGATGGCGGTCCTGT/TTAGGGGGTGTGC; assay: ITC; conditions: Mg2+ 40 mM (MgCl2); 20 mM Tris acetate pH 7.9, 25 °C; poorly defined fit (ΔH -335 ±751 kJ/mol)
[6] = test system: Split Mel aptamer – 4nt (DNA, aptamer) GCACACCGATGGCGGTCCTGTAGGT/ACCTTTAGGGGGTGTGC; assay: ITC; conditions: Mg2+ 40 mM (MgCl2); 20 mM Tris acetate pH 7.9, 25 °C; one set of sites fit
[7] = test system: Gm/Hm (DNA, aptamer) AGGGTGGTGGCGAAAGCACACCGATGGCGGTCCTGTAGGT/ACCTTTAGGGGGTGTGCAAACGCCTAGGTTGGGT; assay: thrombin coagulation inhibition, light scattering; conditions: 1 µM Gm/Hm, 5 nM thrombin, 10 mg/ml fibrinogen, 10-1000 µM Mel, 25 °C
[8] = test system: Nm/Tm/Pm (DNA, aptamer) TAATACGACTCACTATAGGGATCCCGACTGGCGAGAGCCAGGTAACGAATGGATCC/GGATCCATTCGTTACCTGGCTCTCGCCAGTCGGGATCCCTATAGTGAGTCTTAGGGGGTGTGC/GCACACCGATGGCGGTCCTGTGTATTA; assay: transcription activation, MG aptamer fluorescence; conditions: Mg2+ 20 mM (MgCl2); 1×RNAPol reaction buffer, 0.2 µM strands, 0.125-2 mM Mel, 35 °C
[9] = test system: Intact Mel aptamer (DNA, aptamer) GCACACCGATGGCGGTCCTGTTTAGGGGGTGTGC; assay: ITC; conditions: Mg2+ 40 mM (MgCl2); 20 mM Tris acetate pH 7.9, 25 °C; one set of sites fit
[10] = test system: Dm/Em (DNA, aptamer) CTGTTCAGCGATGCACACCGATGGCGGTCCTGTAGGT/ACCTTTAGGGGGTGTGCCACCCATGTTCCTGA; assay: DNAzyme cleavage of FAM/BHQ1 substrate, fluorescence; conditions: Mg2+ 40 mM (MgCl2); apparent; 20 mM Tris acetate pH 7.9, 1 µM each strand, 1 µM substrate S, BSA
[11] = test system: R1 (MG RNA aptamer) (RNA, aptamer) GGAUCCCGACUGGCGAGAGCCAGGUAACGAAUGGAUCC; assay: fluorescence (ex 632 nm, em 650 nm); conditions: Mg2+ 20 mM (MgCl2); 1×RNAPol reaction buffer, 5 mM DTT, 2 µM MG, 35 °C, during transcription

With `Nc1ncnc2c1ncn2[C@@H]1O[C@H](CO)[C@@H](O)[C@H]1O` the binding [1] was “yes”, the Kd [2] was 7.28 ± 0.82 µM and the Kd [3] was 14.1 ± 1.3 µM.

For `O=c1[nH]cnc2c1ncn2[C@@H]1O[C@H](CO)[C@@H](O)[C@H]1O`, the binding [4] was “no”.

In the case of `Nc1nc(N)nc(N)n1`, the Kd [5] is reported as 11.1 ± 2.09 µM, the Kd [6] is reported as 0.890 ± 0.123 µM and the binding [7] is reported as “yes”. The binding [8] was “yes”, the Kd [9] was 0.800 ± 0.139 µM and the K0.5 [10] was 162 ± 4.8 µM.

In the case of `CN(C)c1ccc(C(=C2C=CC(=[N+](C)C)C=C2)c2ccccc2)cc1`, the binding [11] is reported as “yes”.
